Results as given in the kinase profiling compilation of Christmann-Franck et al. (2016).

Experiments:
Assay in all cases: KINOMEscan competition binding
Settings in all cases: compound 10.0 µM
BMPR1B (human) = BMPR1B (human) (UniProt O00238)
BRAF (human) = BRAF (human) (UniProt P15056)
CDK19 (human) = CDK19 (human) (UniProt Q9BWU1)
CDKL2 (human) = CDKL2 (human) (UniProt Q92772)
CIT (human) = CIT (human) (UniProt O14578)
CSNK1A1L (human) = CSNK1A1L (human) (UniProt Q8N752)
CSNK2A1 (human) = CSNK2A1 (human) (UniProt P68400)
DYRK1B (human) = DYRK1B (human) (UniProt Q9Y463)
EPHA2 (human) = EPHA2 (human) (UniProt P29317)
FGFR2 (human) = FGFR2 (human) (UniProt P21802)
[1] = molecular target: JAK2 JH1 catalytic (human) (UniProt O60674)
KIT (human) = KIT (human) (UniProt P10721)
[2] = test system: KIT (human), P10721 [V559D/V654A]
MAP2K3 (human) = MAP2K3 (human) (UniProt P46734)
MAP3K9 (human) = MAP3K9 (human) (UniProt P80192)
MAPK13 (human) = MAPK13 (human) (UniProt O15264)
MAPK9 (human) = MAPK9 (human) (UniProt P45984)
MARK3 (human) = MARK3 (human) (UniProt P27448)
MINK1 (human) = MINK1 (human) (UniProt Q8N4C8)
MKNK1 (human) = MKNK1 (human) (UniProt Q9BUB5)
MST4 (human) = MST4 (human) (UniProt Q9P289)
NEK5 (human) = NEK5 (human) (UniProt Q6P3R8)
NUAK1 (human) = NUAK1 (human) (UniProt O60285)
PDPK1 (human) = PDPK1 (human) (UniProt O15530)
PHKG1 (human) = PHKG1 (human) (UniProt Q16816)
ROS1 (human) = ROS1 (human) (UniProt P08922)
RPS6KA1 KD2 (human) = RPS6KA1 KD2 (human) (UniProt Q15418)
SGK110 (human) = SGK110 (human) (UniProt P0C264)
SLK (human) = SLK (human) (UniProt Q9H2G2)
STK32B (human) = STK32B (human) (UniProt Q9NY57)
TGFBR1 (human) = TGFBR1 (human) (UniProt P36897)
TNK1 (human) = TNK1 (human) (UniProt Q13470)
TSSK1B (human) = TSSK1B (human) (UniProt Q9BXA7)
ULK1 (human) = ULK1 (human) (UniProt O75385)
ULK3 (human) = ULK3 (human) (UniProt Q6PHR2)
WEE1 (human) = WEE1 (human) (UniProt P30291)
WEE2 (human) = WEE2 (human) (UniProt P0C1S8)

PDPK1 (human), sequence (O15530 whole entry, looked up): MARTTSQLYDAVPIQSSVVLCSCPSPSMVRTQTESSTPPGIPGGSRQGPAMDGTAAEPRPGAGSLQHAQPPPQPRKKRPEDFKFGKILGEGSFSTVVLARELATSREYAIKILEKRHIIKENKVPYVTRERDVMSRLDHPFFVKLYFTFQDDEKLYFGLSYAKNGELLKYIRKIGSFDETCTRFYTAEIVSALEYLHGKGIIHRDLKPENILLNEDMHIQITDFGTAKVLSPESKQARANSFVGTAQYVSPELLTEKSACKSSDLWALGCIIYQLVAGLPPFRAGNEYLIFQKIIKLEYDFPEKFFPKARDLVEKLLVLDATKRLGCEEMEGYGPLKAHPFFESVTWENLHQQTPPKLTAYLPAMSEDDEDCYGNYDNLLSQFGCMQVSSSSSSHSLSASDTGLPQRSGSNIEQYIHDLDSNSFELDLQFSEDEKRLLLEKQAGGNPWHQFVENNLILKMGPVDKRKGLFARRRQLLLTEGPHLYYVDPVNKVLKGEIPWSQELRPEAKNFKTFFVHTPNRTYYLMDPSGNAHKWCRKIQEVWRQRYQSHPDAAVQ
ULK1 (human), sequence (O75385 whole entry, looked up): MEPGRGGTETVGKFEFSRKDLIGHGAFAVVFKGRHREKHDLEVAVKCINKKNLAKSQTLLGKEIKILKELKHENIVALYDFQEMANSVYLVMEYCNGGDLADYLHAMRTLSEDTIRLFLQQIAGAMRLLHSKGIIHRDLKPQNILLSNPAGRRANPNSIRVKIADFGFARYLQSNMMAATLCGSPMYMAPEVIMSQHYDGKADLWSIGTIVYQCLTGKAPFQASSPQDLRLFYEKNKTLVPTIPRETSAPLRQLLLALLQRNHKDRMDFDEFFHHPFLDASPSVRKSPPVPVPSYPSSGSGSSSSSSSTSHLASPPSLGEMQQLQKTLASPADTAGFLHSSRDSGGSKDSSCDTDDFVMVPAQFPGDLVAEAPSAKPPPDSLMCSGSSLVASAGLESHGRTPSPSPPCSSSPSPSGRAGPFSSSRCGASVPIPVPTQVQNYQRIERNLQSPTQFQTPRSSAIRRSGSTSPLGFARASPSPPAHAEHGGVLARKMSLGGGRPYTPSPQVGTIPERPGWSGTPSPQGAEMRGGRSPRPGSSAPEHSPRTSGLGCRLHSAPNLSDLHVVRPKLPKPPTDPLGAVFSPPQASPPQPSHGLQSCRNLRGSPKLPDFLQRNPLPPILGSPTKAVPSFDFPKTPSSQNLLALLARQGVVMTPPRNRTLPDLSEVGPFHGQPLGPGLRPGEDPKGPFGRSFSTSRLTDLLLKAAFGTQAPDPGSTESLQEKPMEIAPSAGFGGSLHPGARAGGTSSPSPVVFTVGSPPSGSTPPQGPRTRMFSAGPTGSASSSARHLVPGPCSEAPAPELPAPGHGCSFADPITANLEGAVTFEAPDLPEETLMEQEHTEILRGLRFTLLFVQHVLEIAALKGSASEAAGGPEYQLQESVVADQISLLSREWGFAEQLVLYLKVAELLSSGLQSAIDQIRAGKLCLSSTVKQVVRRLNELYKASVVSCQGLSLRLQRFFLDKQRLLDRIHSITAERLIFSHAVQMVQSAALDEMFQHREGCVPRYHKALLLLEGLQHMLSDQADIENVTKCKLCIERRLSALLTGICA
WEE1 (human), sequence (P30291 whole entry, looked up): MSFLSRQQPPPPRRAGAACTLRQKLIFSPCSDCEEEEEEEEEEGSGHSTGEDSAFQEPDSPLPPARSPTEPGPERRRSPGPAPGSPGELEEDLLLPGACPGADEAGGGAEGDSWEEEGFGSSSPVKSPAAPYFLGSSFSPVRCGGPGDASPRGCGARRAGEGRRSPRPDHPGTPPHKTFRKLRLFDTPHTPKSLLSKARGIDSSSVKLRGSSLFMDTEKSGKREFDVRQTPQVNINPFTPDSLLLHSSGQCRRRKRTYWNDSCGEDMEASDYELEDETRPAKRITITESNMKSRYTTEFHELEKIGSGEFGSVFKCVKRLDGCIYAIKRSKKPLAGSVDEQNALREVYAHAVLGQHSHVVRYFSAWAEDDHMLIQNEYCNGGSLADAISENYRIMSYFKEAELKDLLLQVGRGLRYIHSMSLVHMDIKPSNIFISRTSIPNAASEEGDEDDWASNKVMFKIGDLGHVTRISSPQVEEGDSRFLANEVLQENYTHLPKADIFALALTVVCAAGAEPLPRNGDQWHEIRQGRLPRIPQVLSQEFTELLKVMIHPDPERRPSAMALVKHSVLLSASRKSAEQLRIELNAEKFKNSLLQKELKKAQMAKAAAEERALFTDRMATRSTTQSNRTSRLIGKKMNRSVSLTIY
CIT (human), sequence (O14578 whole entry, looked up): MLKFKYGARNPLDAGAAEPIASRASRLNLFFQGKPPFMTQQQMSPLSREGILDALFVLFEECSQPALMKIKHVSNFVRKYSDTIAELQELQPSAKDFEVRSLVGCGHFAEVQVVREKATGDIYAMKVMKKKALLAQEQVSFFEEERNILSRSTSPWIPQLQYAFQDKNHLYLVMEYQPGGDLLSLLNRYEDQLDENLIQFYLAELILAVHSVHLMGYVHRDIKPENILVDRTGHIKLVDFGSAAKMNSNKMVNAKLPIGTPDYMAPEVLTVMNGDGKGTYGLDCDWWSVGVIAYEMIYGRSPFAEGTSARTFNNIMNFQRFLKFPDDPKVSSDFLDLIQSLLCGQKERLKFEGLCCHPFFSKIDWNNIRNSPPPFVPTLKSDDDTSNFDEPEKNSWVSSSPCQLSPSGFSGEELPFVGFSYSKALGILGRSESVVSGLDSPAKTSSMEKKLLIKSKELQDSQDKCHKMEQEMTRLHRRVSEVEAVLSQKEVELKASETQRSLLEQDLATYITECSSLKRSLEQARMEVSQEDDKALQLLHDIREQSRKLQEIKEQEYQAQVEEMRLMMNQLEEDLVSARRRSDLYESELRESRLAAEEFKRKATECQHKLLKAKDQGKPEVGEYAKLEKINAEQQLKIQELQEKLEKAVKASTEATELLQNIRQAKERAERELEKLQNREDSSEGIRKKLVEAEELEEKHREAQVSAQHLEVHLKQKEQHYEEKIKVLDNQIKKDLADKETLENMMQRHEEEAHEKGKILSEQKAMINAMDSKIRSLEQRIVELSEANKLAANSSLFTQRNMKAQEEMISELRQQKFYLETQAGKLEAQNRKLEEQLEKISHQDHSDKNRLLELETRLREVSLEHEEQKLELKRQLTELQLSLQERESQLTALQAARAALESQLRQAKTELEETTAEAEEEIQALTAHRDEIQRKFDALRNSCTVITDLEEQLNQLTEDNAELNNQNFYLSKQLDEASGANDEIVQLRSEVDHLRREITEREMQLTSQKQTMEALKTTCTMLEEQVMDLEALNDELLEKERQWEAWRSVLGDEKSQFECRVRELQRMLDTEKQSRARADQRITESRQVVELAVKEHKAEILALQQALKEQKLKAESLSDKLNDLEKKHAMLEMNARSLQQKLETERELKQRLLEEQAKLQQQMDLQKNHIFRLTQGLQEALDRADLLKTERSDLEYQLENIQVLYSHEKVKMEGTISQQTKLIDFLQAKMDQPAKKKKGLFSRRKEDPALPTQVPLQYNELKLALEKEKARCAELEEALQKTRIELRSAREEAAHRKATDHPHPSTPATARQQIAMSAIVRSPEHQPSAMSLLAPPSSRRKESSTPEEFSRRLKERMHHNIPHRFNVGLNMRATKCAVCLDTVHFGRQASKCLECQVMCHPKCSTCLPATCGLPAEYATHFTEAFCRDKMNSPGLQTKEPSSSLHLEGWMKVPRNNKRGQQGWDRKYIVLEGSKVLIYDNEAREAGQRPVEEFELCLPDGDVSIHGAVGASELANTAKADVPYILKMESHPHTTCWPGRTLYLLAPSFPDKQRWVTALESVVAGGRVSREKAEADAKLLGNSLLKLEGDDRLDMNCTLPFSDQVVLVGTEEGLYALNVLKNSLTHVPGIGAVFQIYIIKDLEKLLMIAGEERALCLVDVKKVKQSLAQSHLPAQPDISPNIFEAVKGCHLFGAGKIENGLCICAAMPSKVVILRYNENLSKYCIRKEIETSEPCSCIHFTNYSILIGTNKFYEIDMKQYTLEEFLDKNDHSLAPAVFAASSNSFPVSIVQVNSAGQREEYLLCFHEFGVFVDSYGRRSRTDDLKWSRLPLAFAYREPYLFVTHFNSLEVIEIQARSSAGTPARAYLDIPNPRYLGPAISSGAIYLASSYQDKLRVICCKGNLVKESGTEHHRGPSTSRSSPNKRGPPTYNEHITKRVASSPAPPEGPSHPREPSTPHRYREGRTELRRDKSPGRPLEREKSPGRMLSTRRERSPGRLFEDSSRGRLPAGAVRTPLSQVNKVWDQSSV
MAPK13 (human), sequence (O15264 whole entry, looked up): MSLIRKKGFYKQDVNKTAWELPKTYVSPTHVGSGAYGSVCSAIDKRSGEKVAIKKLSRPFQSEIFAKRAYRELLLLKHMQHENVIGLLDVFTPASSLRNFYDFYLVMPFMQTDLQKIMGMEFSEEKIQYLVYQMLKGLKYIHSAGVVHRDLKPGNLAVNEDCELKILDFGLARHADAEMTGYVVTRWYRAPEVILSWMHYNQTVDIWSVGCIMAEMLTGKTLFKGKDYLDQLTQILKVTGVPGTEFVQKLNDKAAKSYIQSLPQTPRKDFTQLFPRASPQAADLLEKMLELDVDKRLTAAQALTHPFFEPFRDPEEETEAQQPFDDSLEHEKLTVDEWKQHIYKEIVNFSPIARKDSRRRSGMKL
CSNK1A1L (human), sequence (Q8N752 whole entry, looked up): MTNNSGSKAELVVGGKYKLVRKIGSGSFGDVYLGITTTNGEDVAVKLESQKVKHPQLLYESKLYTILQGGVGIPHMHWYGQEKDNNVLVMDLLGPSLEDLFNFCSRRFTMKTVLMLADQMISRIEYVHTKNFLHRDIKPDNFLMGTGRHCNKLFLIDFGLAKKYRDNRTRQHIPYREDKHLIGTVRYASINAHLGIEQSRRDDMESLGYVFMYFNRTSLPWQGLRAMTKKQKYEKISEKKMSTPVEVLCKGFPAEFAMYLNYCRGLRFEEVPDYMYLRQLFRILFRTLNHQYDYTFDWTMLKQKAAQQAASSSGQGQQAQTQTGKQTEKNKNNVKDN

Work on `Cc1n[nH]c2ccc(-c3cncc(OC[C@@H](N)Cc4c[nH]c5ccccc45)c3)cc12` yielded a kinase still bound, per cent of control (BMPR1B (human)) of 100%, a kinase still bound, per cent of control (BRAF (human)) of 100% and a kinase still bound, per cent of control (CDK19 (human)) of 0.5%. The kinase still bound, per cent of control (CDKL2 (human)) was 5.2%, the kinase still bound, per cent of control (CIT (human)) was 0.2% and the kinase still bound, per cent of control (CSNK1A1L (human)) was 11%. For the same molecule, the kinase still bound, per cent of control (CSNK2A1 (human)) was 17%, the kinase still bound, per cent of control (DYRK1B (human)) was 0% and the kinase still bound, per cent of control (EPHA2 (human)) was 100%. The kinase still bound, per cent of control (FGFR2 (human)) was 100%, the kinase still bound, per cent of control [1] was 100% and the kinase still bound, per cent of control (KIT (human)) was 100%. For the same molecule, the kinase still bound, per cent of control [2] was 100%, the kinase still bound, per cent of control (MAP2K3 (human)) was 7.1% and the kinase still bound, per cent of control (MAP3K9 (human)) was 100%. For the same molecule, the kinase still bound, per cent of control (MAPK13 (human)) was 4.4%, the kinase still bound, per cent of control (MAPK9 (human)) was 100% and the kinase still bound, per cent of control (MARK3 (human)) was 9.4%. It also gave a kinase still bound, per cent of control (MINK1 (human)) of 6.2%, a kinase still bound, per cent of control (MKNK1 (human)) of 19% and a kinase still bound, per cent of control (MST4 (human)) of 30%. The kinase still bound, per cent of control (NEK5 (human)) was 100%, the kinase still bound, per cent of control (NUAK1 (human)) was 100% and the kinase still bound, per cent of control (PDPK1 (human)) was 100%. It also gave a kinase still bound, per cent of control (PHKG1 (human)) of 8%, a kinase still bound, per cent of control (ROS1 (human)) of 100% and a kinase still bound, per cent of control (RPS6KA1 KD2 (human)) of 100%. It also gave a kinase still bound, per cent of control (SGK110 (human)) of 100%, a kinase still bound, per cent of control (SLK (human)) of 100% and a kinase still bound, per cent of control (STK32B (human)) of 100%. It also gave a kinase still bound, per cent of control (TGFBR1 (human)) of 100%, a kinase still bound, per cent of control (TNK1 (human)) of 100% and a kinase still bound, per cent of control (TSSK1B (human)) of 100%. The kinase still bound, per cent of control (ULK1 (human)) was 22%, the kinase still bound, per cent of control (ULK3 (human)) was 100% and the kinase still bound, per cent of control (WEE1 (human)) was 100%. It also gave a kinase still bound, per cent of control (WEE2 (human)) of 100%.
